The values that follow are results of earlier work, collected in EP1541129A1, “Pharmaceutical effervescent formulation comprising amoxycillin and clavulanic acid” (Cimex AG, priority 2003, dated 2005).

The structures appear in SMILES notation.

For the data set the following is noted: freely water-soluble.

Consider `O=C(O)[C@H]1/C(=C/CO)O[C@@H]2CC(=O)N21` [Potassium clavulanate, potassium clavulanate], for which the solubility in water entry is “about 1 part of water for 1 part of solute”.
